Tested on: Rhipicephalus sanguineus nymphs
Test: Efficacy against Rhipicephalus sanguineus on infested guinea pigs, topical bath treatment
Format: in vivo
Settings: for average number of detached ticks per animal (detachment effect): bath treatment, 24 hours after treatment, guinea pigs infested with 100 nymphs; for overall acaricidal efficacy against R. sanguineus-nymphs: compared to the control group; for average number of engorged ticks per animal: engorged ticks dropping from d4 to d8; for average number of dead ticks after detachment: mortality assessed 24 hours after detachment
Procedure: Efficacy against Rhipicephalus sanguineus
Guinea pigs were infested with 100 nymphs of Rhipicephalus sanguineus (d0). Guinea pigs (n=3) were treated topically (bath treatment) with atipamezol (7.8 ppm), amitraz (2.0 ppm; 3.9 ppm) and two combinations of both (7.8 ppm atipamezol+2.0 ppm amitraz; 7.8 ppm atipamezol+3.9 ppm amitraz), respectively (d1). The control group remained untreated.
The number of detached ticks was assessed 1, 3, 6 and 24 hours after treatment (detachment effect).
The mortality of detached ticks was assessed 24 hours after detachment.
The average number of engorged ticks dropping per animal from d4 to d8 was assessed to determine the overall acaricidal efficacy compared to the control group.

Compound | average number of detached ticks per animal (detachment effect) (2.0 ppm amitraz) | overall acaricidal efficacy against R. sanguineus-nymphs (2.0 ppm amitraz) [%] | average number of engorged ticks per animal (2.0 ppm amitraz) | average number of dead ticks after detachment (2.0 ppm amitraz) | average number of detached ticks per animal (detachment effect) (3.9 ppm amitraz) | overall acaricidal efficacy against R. sanguineus-nymphs (3.9 ppm amitraz) [%] | average number of engorged ticks per animal (3.9 ppm amitraz) | average number of dead ticks after detachment (3.9 ppm amitraz) | average number of detached ticks per animal (detachment effect) (7.8 ppm atipamezol) | overall acaricidal efficacy against R. sanguineus-nymphs (7.8 ppm atipamezol) [%] | average number of engorged ticks per animal (7.8 ppm atipamezol) | average number of dead ticks after detachment (7.8 ppm atipamezol) | acaricidal/insecticidal effect (in words) (atipamezole alone)
Cc1ccc(N=CN(C)C=Nc2ccc(C)cc2C)c(C)c1 [amitraz, 1,5-di-(2,4-dimethylphenyl)-3-methyl-1,3,5-triazapenta-1,4-diene] | 29.7 | 84 | 8.7 | 24.3 | 43.7 | 100 | 0 | 39.7 | – | – | – | – | –
CCC1(c2cnc[nH]2)Cc2ccccc2C1 [atipamezol, 4(5)-(2,3-dihydro-2-ethyl-1H-inden-2-yl)imidazole] | – | – | – | – | – | – | – | – | 2.0 | 63 | 20.7 | 1.3 | does not show an acaricidal/insecticidal effect

From patent publication US20100179205A1, “Composition for Enhanced Antiparasitic Activity” (Intervet International B.V., priority 2006, published 2010)
